Data published in publication PMC3480437, “Abscisic Acid Signaling: Thermal Stability Shift Assays as Tool to Analyze Hormone Perception and Signal Transduction” (PLoS ONE, 2012).

Experiments:
Type in all cases: binding
SnRK2.3 = biological target: T1, SnRK2.3 (Arabidopsis thaliana, UniProt Q39193); test: thermal shift (SYPRO Orange); conditions: 50 µM compound, 5 µM kinase
T1 construct: gene SRK2I; full length, recombinant from E. coli; untagged and as N-terminal MBP fusion (NAAAEF linker)
T1 sequence (Q39193 1-361): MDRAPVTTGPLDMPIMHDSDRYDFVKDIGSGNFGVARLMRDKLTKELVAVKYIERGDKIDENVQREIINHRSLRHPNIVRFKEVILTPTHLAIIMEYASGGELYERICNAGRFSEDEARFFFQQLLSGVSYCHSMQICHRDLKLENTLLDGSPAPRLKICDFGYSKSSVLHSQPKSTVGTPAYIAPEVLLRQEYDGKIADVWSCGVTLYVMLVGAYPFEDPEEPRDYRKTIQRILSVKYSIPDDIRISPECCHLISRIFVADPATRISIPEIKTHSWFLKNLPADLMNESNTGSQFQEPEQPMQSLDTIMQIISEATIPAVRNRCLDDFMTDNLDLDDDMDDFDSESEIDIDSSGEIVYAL

SnRK2.6 = biological target: T2, SnRK2.6 (Arabidopsis thaliana, UniProt Q940H6); test: thermal shift (SYPRO Orange); conditions: 50 µM compound, 5 µM kinase
T2 construct: gene SRK2E; full length, recombinant from E. coli; untagged in TSA, H6GST fusion in kinase assay
T2 sequence (Q940H6 1-362): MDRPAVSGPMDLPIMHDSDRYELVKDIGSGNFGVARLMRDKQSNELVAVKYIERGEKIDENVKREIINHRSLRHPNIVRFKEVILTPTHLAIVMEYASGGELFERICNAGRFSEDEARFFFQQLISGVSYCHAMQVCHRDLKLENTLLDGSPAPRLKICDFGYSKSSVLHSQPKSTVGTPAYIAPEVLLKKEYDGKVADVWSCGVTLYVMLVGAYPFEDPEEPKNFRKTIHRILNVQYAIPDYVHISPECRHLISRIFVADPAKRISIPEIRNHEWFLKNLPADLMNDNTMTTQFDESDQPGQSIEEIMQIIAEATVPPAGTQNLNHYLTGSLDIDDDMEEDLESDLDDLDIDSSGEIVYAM

SnRK2.2 = biological target: T3, SnRK2.2 (Arabidopsis thaliana, UniProt Q39192); test: thermal shift (SYPRO Orange); conditions: 50 µM compound
T3 construct: gene SRK2D
T3 sequence (Q39192 1-362): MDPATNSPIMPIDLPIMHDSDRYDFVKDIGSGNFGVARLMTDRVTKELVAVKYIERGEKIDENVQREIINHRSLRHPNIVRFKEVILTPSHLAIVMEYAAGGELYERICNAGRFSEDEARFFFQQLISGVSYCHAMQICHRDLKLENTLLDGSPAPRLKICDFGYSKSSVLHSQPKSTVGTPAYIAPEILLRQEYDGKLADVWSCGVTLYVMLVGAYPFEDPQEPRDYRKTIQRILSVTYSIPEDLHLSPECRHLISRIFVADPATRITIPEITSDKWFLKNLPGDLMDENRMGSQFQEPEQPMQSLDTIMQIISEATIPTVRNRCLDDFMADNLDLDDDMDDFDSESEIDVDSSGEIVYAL

[1] = biological target: T4, PYL1/HAB1 coreceptor complex (Arabidopsis thaliana, UniProt Q8VZS8); test: radioligand competition (SPA, 3H-ABA); conditions: 450 nM 3H-ABA, 10 µM HAB1, MOPS pH 7.4, room temperature; curve only in figure
T4 construct: H6GST-PYL1 on SPA beads plus HAB1 (172-511), both from E. coli; 1:1 complex; with Protein phosphatase 2C 16
T4 sequence (Q8VZS8 36-211): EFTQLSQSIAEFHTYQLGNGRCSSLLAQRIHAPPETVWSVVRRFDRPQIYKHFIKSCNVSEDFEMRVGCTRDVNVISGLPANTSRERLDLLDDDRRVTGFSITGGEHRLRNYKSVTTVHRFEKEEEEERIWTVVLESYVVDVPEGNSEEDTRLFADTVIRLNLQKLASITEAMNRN
T4 sequence (Q9CAJ0 172-511 partner): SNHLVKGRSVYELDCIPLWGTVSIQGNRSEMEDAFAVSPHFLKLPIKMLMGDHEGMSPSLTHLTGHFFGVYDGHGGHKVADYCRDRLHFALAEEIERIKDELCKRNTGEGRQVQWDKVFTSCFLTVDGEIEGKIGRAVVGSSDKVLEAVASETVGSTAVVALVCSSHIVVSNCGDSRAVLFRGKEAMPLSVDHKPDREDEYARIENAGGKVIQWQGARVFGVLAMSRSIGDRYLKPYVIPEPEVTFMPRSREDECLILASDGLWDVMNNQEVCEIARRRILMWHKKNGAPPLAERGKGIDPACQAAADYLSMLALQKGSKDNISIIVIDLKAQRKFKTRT

PYL2 = biological target: T5, PYL2 (Arabidopsis thaliana, UniProt O80992); test: thermal shift (SYPRO Orange); conditions: 500 µM pyrabactin, no PP2C; apo Tm not derivable
T5 construct: residues 14-188, recombinant from E. coli, receptor alone without PP2C; dimeric
T5 sequence (O80992 14-188): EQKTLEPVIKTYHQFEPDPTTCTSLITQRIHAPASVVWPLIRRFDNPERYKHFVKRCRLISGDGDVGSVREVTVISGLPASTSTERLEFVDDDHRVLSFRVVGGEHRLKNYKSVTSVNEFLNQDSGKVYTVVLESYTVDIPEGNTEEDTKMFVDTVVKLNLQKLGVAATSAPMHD

| dTm (SnRK2.3) | dTm (SnRK2.6) | dTm (SnRK2.2) | SMILES | radioligand competition (SPA, 3H-ABA) [1] | thermal shift (SYPRO Orange) (PYL2) |
| --- | --- | --- | --- | --- | --- |
| > 3 °C | > 3 °C | > 3 °C | O=C1NC(=O)c2c1c(-c1ccccc1Cl)cc1[nH]c3ccc(O)cc3c21 [Wee1 inhibitor] | – | – |
| – | – | – | O=S(=O)(NCc1ccccn1)c1ccc(Br)c2ccccc12 [pyrabactin] | Competition of the interactions between ^3H-ABA and the PYL1/HAB1 (A) | suggesting that pyrabactin directly binds PYL2, but with an affinity that is lower |
